Data from US20240085429A1, “ALTERING PROTEIN FUNCTION BY PHARMACOLOGICAL TARGETING OF MEMBRANE DOMAINS” (University of Virginia Patent Foundation, priority 2021, published 2024).
Structures can show the parent of a compound that is named as a salt.

Tests used:
[1] = test system: human peripheral myelin protein 22 (PMP22); assay: HTS of FDA-approved drug library for compounds that alter phase partitioning of PMP22 in GPMVs; conditions: for hit class in PMP22 screen: 1184 compound library of FDA-approved drugs; for hit class in PMP22 screen / shift of PMP22 phase preference in favor of the ordered (raft) phase: 10 micromolar; for shift of PMP22 phase preference in favor of the ordered (raft) phase: control value 78%, reproducible at 1 micromolar; for effect on relative ordered (raft) vs. disordered phase proportions: in the absence or presence of PMP22
From the text: By way of example and not limitation, in some embodiments PMP22 containing a MYC epitope sequence was employed in the GPMVs (hereafter referred to as “PMP22”, such as by expressing a MYC-Tagged PMP22 in Hela cells, followed by formation of PMP22 containing GPMVs, followed by addition of a commercial fluorescently labeled anti-MYC antibody to confer fluorescence to PMP22 in GPMVs, thereby making PMP22 detectable to enable its quantitation in the raft phase domains versus in the non-raft phase domains. See Marinko et al. (2020) Proc Natl Acad Sci USA 117(25):14168-14177.
The assay was scaled up to carry out high throughput screens (HTS). The strategy for these screens is similar to those outlined for our approach to finding compounds that shift the raft vs. non-raft phase domain distribution in GPMVs, except that in this case we were interested in discovering compounds that either shift PMP22 out of rafts or enhance its partitioning into the ordered raft phase domain. This pilot HTS screen involved the 1184 compound library of FDA-approved drugs at a concentration of 10 micromolar each and was carried out in the Vanderbilt HTS Core. We predicted that select compounds might sometimes change not only the phase partitioning of PMP22, but also change the actual amounts of ordered (raft) versus disordered phase domains that are present. We also wondered whether PMP22 and certain compounds might act synergistically (through any one of several possible mechanisms) to alter membrane phase behavior. This could potentially cause the compounds to have different effects on the ratio of raft versus disordered domains in the absence relative to the presence of the PMP22 protein. To test these possibilities, we compared the results of our screen to the results of preliminary screens carried out on the same compounds in GPMVs lacking expressed PMP22. This allowed us to directly evaluate the effects of the compounds under both conditions. The plots shown in FIGS. 28A and 28B, as well as additional data not shown reveal several classes of PMP22-impacting hits from this 1184 compound library: […]

GPMVs from HeLa cells = assay: Di4 fluorescence lifetime imaging (lipid packing in GPMVs); set-up: species or system human; conditions: TLCK 1 μM, C6-ceramide 1 μM, MβCD 5 mM
From the text: It was also of interest how TLCK and C6-ceramide impact other properties of the membrane compared to treatments such as cholesterol depletion that are commonly used to disrupt rafts in cells (Zidovetzki & Levitan, 2007). To test this, we examined their effects on membrane lipid packing and fluidity using a fluorescent reporter of membrane packing, Di-4-[…] (Di4) (Jin et al., 2006; Owen et al., 2006; Sezgin et al., 2014; Levental et al., 2020b; Lorent et al., 2020). As a control, we subjected GPMVs to cholesterol depletion using 5 mM MβCD. The photophysical characteristics of Di4, including its lifetime, are dependent on lipid packing in membranes. In particular, a lower Di4 lifetime is indicative of loose packing and a more fluid membrane environment whereas higher Di4 lifetimes point to a less fluid membranes and tighter lipid packing. […] The phase separated vesicles were characterized by two populations of lifetimes, corresponding to the Lo phase (higher lifetime) and Ld phase (lower lifetime) (FIGS. 11A-11F).
GPMVs were prepared as previously described by Sezgin, E, et al., Nat Protoc 2012, 7 (6), 1042-51. In brief, HeLa cells were washed twice with GPMV buffer (2 mM CaCl2)/10 mM HEPES/0.15 M NaCl, pH 7.4), then washed twice with GPMV active buffer (GPMV buffer containing 25 mM formaldehyde and 2 mM DTT). Cells were then incubated with GPMV active buffer for 1-2 hours at 37° C. with shaking at 90-95 RPM. The GPMV-containing supernatant was decanted into a centrifuge tube and GPMVs were allowed to settle for 1 h. Aliquots of GPMVs (100 μL) were pipetted from the bottom of the Eppendorf tube into separate tubes and treated with DMSO (0.1%), 1 μM TLCK, 1 μM C6-ceramide or 5 mM MbCD. After 5 min, Di 4 […] (Di4) (Thermo Scientific) was added to a final concentration of […] from a stock solution of 1 mg/mL Di4 in ethanol. The GPMVs were then sandwiched between two coverslips coated with 1 mg/mL bovine serum albumin (BSA) solution and allowed to incubate for an additional 20 min prior to lifetime measurements.
Di4 lifetime images were performed on a Leica TCS SP8 system comprising a Leica DMi8 inverted scanning confocal microscope with time-correlated single photon counting (TC-SPC) system and an 80 MHz-pulsed supercontinuum white light laser which allows continuously tunable excitation in the visible range coupled with filter-free detection. Samples were imaged using an HC PL APO CS2 63X/1.20 water objective. Di4 was excited at 488 nm and the emission was collected in the 550-800 nm range. The photon count rate was kept under 0.5 photons per laser pulse by adjusting the laser power, and sufficient frames were cumulatively acquired to obtain at least 100 photons per pixel. The fluorescence decay curves were fit with a bi-exponential re-convolution function adjusted to the instrument response function, and the average intensity-weighted lifetime was calculated for individual vesicles or area of interest and represented in the FLIM images as Di4 lifetime. Data are reported from two independent experiments. Statistical analyses were performed using GraphPad Prism 9.3.0.

Molecule | hit class in PMP22 screen [1] | shift of PMP22 phase preference in favor of the ordered (raft) phase [1] [%] | effect on relative ordered (raft) vs. disordered phase proportions [1] | phase state of GPMVs in FLIM images (GPMVs from HeLa cells; room temperature) | average Di4 lifetime (GPMVs from HeLa cells; single-phase GPMVs (MβCD: average across all domains), control 2.53±0.06 ns, mean±SD) [ns]
CN(C)c1ccc(C(=C2C=CC(=[N+](C)C)C=C2)c2ccc(N(C)C)cc2)cc1 [Crystal violet] | false positive |  |  |  | 
Clc1ccc2c(c1)CCc1cccnc1C2=C1CCNCC1 [Desloratadine] | Class I | ~10 | without significantly perturbing |  | 
CSc1ccc2c(c1)N(CCC1CCCCN1C)c1ccccc1S2 (stereo not drawn) [Thioridazine-HCl] | Class I | ~10 | without significantly perturbing |  | 
MβCD |  |  |  | multiple domains with the same lifetime | 1.99±0.09
